Earlier results on 126 compounds are cited in the CATMoS acute toxicity set (Mansouri et al. 2021).

SMILES strings stand for the structures. Several values for one entry are separate records, joined by “and”; a condition that tells them apart may be missing. Equal values may be shown once.

The series can be described thus: rat acute oral toxicity. The settings on record: in vivo.
Take `Cc1cc(C)cc(OCC2CNC(=O)O2)c1` (stereo unspecified): the LD50 is 775 mg/kg.
As for `C#CCN(C)C1CCc2ccccc21` (stereo unspecified), the LD50 is 250 mg/kg.
For `CCCCCc1ccccc1O`, the LD50 is 700 mg/kg.
For `CC(C)=CCCC(C)CCO` (stereo unspecified), the LD50 was 3450 mg/kg.
As to `N#CC(CCN1CCC(C(N)=O)(N2CCCCC2)CC1)(c1ccccc1)c1ccccc1`, the LD50 is 320 mg/kg.
In the case of `CNS(=O)(=O)OCC(=O)N1CCCCCC1`, the LD50 is 2040 mg/kg.
With `CCOc1ccccc1N1CCN(C(=O)CCC2CCCCC2)CC1`, the LD50 was 2420 mg/kg.
On to `CC(C)CCOC(=O)c1ccccc1`, for which the LD50 is 6330 mg/kg.
On to `CN(C)N`, for which the 50% lethal dose (LD50) is 122 mg/kg and 196 mg/kg.
Take `Cc1ccc(B2OCC3(CO2)COB(c2ccc(C)cc2)OC3)cc1`: the LD50 was 1130 mg/kg.
With `CC1OC1C` (stereo unspecified), the LD50 is 2150 mg/kg.
With `CCOC(CN1CCN(CC(C)C(=O)c2ccccc2)CC1)c1ccccc1` (stereo unspecified), the LD50 is 763 mg/kg.
With `COP(=O)(OC)Oc1cc(C)n(C)c(=O)c1`, the LD50 is 2.91 mg/kg.
As to `FC(F)(F)c1nc2c(Br)cc(Br)c(Br)c2[nH]1`, the LD50 is 12.8 mg/kg.
With `CCOC(=O)C1=CN(C(=O)c2ccccc2)C2CCCC(C)N2C1=O` (stereo unspecified), the LD50 was 1640 mg/kg.
Take `c1coc(-c2nc3ccccc3[nH]2)c1`: the LD50 was 500 mg/kg.
`CCCCc1c(OC(=O)c2cc(OC)c(OC)c(OC)c2)n(-c2ccccc2)n(-c2ccccc2)c1=O`: the LD50 was 3000 mg/kg.
Consider `CCCCCCc1ccc(O)cc1O`, for which the LD50 was 550 mg/kg.
With `Nc1ccc(O)c2c1C(=O)c1c(O)cc(-c3ccc(O)cc3)c(N)c1C2=O`, the LD50 is 6380 mg/kg.
Take `CCCCC(C)(C)[C@H](O)C=C[C@H]1[C@H](C)CC(=O)[C@@H]1CC=CCCCC(=O)O`: the LD50 is 22 mg/kg.
For the compound `O=C1NS(=O)(=O)c2ccccc21`, the LD50 was 14200 mg/kg.
As to `O=[N+]([O-])c1cc2nc(C(F)(F)F)[nH]c2cc1[N+](=O)[O-]`, the LD50 is 15.2 mg/kg.
`CC(C)=CCN(CC=C(C)C)CCC(C)(C(N)=O)c1cccc2ccccc12` (stereo unspecified): the LD50 is 353 mg/kg.
For `CCCCOC(=O)[C@@H](C)Oc1ccc(Oc2ccc(C(F)(F)F)cn2)cc1`, the LD50 is 2710 mg/kg.
Turning to `Cc1ccc2[nH]c(C(F)(F)F)nc2c1Br`, the LD50 is 64 mg/kg.
Regarding `C=CC=C`, the LD50 is 5480 mg/kg.
Turning to `COC(=O)c1cc([N+](=O)[O-])ccc1Cl`, the LD50 is 5360 mg/kg.
As for `Cc1sc2ccccc2c1CC1=NCCN1`, the LD50 was 74 mg/kg.
In the case of `CCCC(=O)OC1CCC(N2CCCCC2)CC1` (stereo unspecified), the LD50 is 1910 mg/kg.
`N#CC1CCCCC1`: the LD50 is 80 mg/kg.
With `CC(C)=CCC/C(C)=C\CO`, the LD50 is 4500 mg/kg.
As for `Cc1cc(-n2c(C)nc3ccccc3c2=O)cc(C)c1O`, the LD50 was 230 mg/kg.
As to `CCC(C)(C)c1ccc(O)c(C(C)(C)CC)c1`, the LD50 was 330 mg/kg.
Take `CN1CCC2(C)c3cc(OC(=O)NCCCCCCCCN4CCOCC4)ccc3N(C)C12` (stereo unspecified): the LD50 was 23 mg/kg.
For `COCCl`, the LD50 is 500 mg/kg.
`CCCOC(N)=O`: the LD50 is 1880 mg/kg.
In the case of `Nc1ccc(/N=N/c2ccc(-c3ccc(/N=N/c4c(S(=O)(=O)O)cc5cc(S(=O)(=O)O)c(/N=N/c6ccccc6)c(O)c5c4N)cc3)cc2)c(N)c1`, the LD50 is 7600 mg/kg.
Take `CC(C)CCCCCCCCCCOCCCN`: the LD50 is 300 mg/kg.
Take `CC(C)(C)c1nnc(NS(=O)(=O)c2ccccc2)s1`: the LD50 is 500 mg/kg.
For `C=CC(=O)OCCCCOC(=O)C=C`, the LD50 was 587 mg/kg.
With `ClC(Cl)C(Cl)(Cl)Cl`, the LD50 was 920 mg/kg.
For the compound `CC(=O)NC(=O)N(C)N=O`, the LD50 was 200 mg/kg.
Regarding `CCOP(=S)(OCC)OC(C)C`, the LD50 was 1000 mg/kg.
Turning to `CC1(C)OCC(CO)O1` (stereo unspecified), the LD50 was 7000 mg/kg.
`CC(C=O)CCC(C)(O)C=O` (stereo unspecified): the LD50 is 5890 mg/kg.
As to `C1=CCC=C1`, the LD50 was 113 mg/kg.
Turning to `CNC(=O)ON=CC(C)(C)OC`, the LD50 was 15 mg/kg.
As for `CCC(C)c1ccc(Oc2ccc(C)cc2CC(=O)O)c(Cl)c1` (stereo unspecified), the LD50 was 1110 mg/kg.
Turning to `OCC(Br)C(Br)CO` (stereo unspecified), the LD50 is 2460 mg/kg.
On to `CC1(C)S[C@@H]2[C@H](NC(=O)COc3ccc(Cl)c(Cl)c3)C(=O)N2[C@H]1C(=O)O`, for which the LD50 is 2500 mg/kg.
Regarding `CN(CCn1cnc2c1c(=O)n(C)c(=O)n2C)C1CCCCC1`, the LD50 is 2880 mg/kg.
`CC(Oc1cccc2ccccc12)C(N)N=O` (stereo unspecified): the LD50 is 108 mg/kg.
With `COc1cc2nc(N3CCN(C(=O)OCC4CC4)CC3)nc(N)c2cc1OC`, the LD50 was 1150 mg/kg.
Regarding `OCCNCCOc1ccc(C(=C(c2ccccc2)C(F)(F)F)c2ccccc2)cc1`, the LD50 is 1400 mg/kg.
`CN1CCC2(C)CC(Cc3ccc(O)cc32)C1` (stereo unspecified): the LD50 is 320 mg/kg.
Take `O=C(O)C1C2CCC(O2)C1C(=O)O` (stereo unspecified): the LD50 was 51 mg/kg.
`CCC(O)(COC(N)=O)c1ccccc1` (stereo unspecified): the LD50 is 607 mg/kg.
As to `COc1cc(C(=O)N2CCN(C(=O)c3cc(OC)c(OC)c(OC)c3)CC2)cc(OC)c1OC`, the LD50 is 1000 mg/kg.
Take `CNC(=S)N(C)C`: the LD50 was 316 mg/kg.
`CCOC(=O)C(C)(CC)Oc1ccc(Cc2ccc(Cl)cc2)cc1` (stereo unspecified): the LD50 was 9000 mg/kg.
As to `COP(N)(=S)OC`, the LD50 is 410 mg/kg.
Turning to `CCN(CC)C(=O)c1ccc(O)c(OC)c1`, the LD50 was 154 mg/kg.
`Cc1ccc(CO)cc1`: the LD50 was 3900 mg/kg.
Turning to `CCCCOC(CBr)c1ccccc1` (stereo unspecified), the LD50 is 250 mg/kg.
On to `C[n+]1ccccc1`, for which the LD50 is 285 mg/kg.
Take `COP(=S)(OC)OC1CCCCC1`: the LD50 was 2900 mg/kg.
Take `COP(=S)(OC)SC1CCSc2ccc(Cl)cc21` (stereo unspecified): the LD50 was 200 mg/kg.
As to `COP(=S)(OC)Oc1ccc([N+](=O)[O-])c(SC(C)C)c1`, the LD50 is 1140 mg/kg.
On to `CCC(=O)OCCOc1ccccc1`, for which the LD50 is 4400 mg/kg.
Consider `CSc1ccc(O)cc1C`, for which the LD50 was 3400 mg/kg.
For the compound `O=c1[nH]nc(-c2ccccc2)c2conc12`, the LD50 is 1000 mg/kg.
Consider `O=[N+]([O-])C(CO)(CO)CO`, for which the LD50 was 1900 mg/kg.
Take `COP(=O)(OC)OC1=C(Cl)C2C=CCC12` (stereo unspecified): the LD50 was 96 mg/kg.
Consider `CC(C)=CC(=O)O`, for which the 50% lethal dose (LD50) was 3560 mg/kg.
Take `CC(C)CC(=O)OCCc1ccccc1`: the LD50 is 6220 mg/kg.
In the case of `CN(C)P(=O)(OC=C(Cl)Cl)c1ccc(Cl)cc1` (stereo unspecified), the 50% lethal dose (LD50) was 500 mg/kg.
As for `CCOP(=S)(OCC)N1C(=O)c2ccccc2C1=O`, the LD50 is 4930 mg/kg.
In the case of `CCC(C(=O)O)c1ccc(CC(C)C)cc1` (stereo unspecified), the LD50 was 1600 mg/kg.
Take `CCCCN(CCCC)CCC(O)c1cc2c(Cl)cc(Cl)cc2c2cc(C(F)(F)F)ccc12` (stereo unspecified): the LD50 was 3400 mg/kg.
As for `CCOC(=O)C(CCc1ccccc1)NC(C)C(=O)N1C(C(=O)O)CC2CCCCC21` (stereo unspecified), the LD50 was 2500 mg/kg.
Take `CCCCOC(=O)CC#N`: the LD50 was 4180 mg/kg.
Take `CC(C)CCCC(C)NN` (stereo unspecified): the LD50 was 108 mg/kg.
For `CCCCN(CCCC)CCCN`, the LD50 is 820 mg/kg.
On to `CCOCCC(=O)O`, for which the LD50 was 4800 mg/kg.
For the compound `CC(C)CCP(=O)(CCC(C)C)CCC(C)C`, the LD50 is 2240 mg/kg.
As to `CC(C)(N)Cc1ccccc1`, the LD50 was 188 mg/kg.
On to `CCCC1OCS/C1=N\OC(O)=NC` (stereo unspecified), for which the LD50 is 83 mg/kg.
Regarding `NS(=O)(=O)c1cc2c(cc1Cl)CN(C1CCCCC1)C2=O`, the LD50 was 6000 mg/kg.
With `O=C(CCNNC(=O)c1ccncc1)NCc1ccccc1`, the LD50 is 1700 mg/kg.
For `Cc1c(Nc2ncnc3ccccc23)c(=O)n(C)n1-c1ccccc1`, the LD50 is 369 mg/kg.
Turning to `C/N=N/Nc1ccc([N+](=O)[O-])cc1`, the LD50 was 468 mg/kg.
Regarding `CCSCCOc1ccc([N+](=O)[O-])cc1`, the LD50 was 826 mg/kg.
Regarding `COc1coc(CSP(=O)(OC)OC)cc1=O`, the LD50 was 23 mg/kg.
In the case of `CCOC(=O)C1=C(C)NC(C)=C(C(=O)OC)C1c1cccc([N+](=O)[O-])c1` (stereo unspecified), the median lethal dose (LD50) was 15400 mg/kg.
Take `C#CC(C)N(C)C(=O)Nc1ccc(Cl)cc1` (stereo unspecified): the LD50 is 1790 mg/kg.
As to `CCOC(C1=NCC(C)(C)CN1)c1ccc(OC)cc1` (stereo unspecified), the LD50 is 625 mg/kg.
On to `CC(C)Oc1ccccc1N`, for which the LD50 was 840 mg/kg.
As to `O=[N+]([O-])C1(Br)COCOC1`, the LD50 is 455 mg/kg.
Take `CC(C)(C)C(=O)CCl`: the LD50 was 550 mg/kg.
Turning to `COc1ccc2cc(C(C)C(=O)OCCOCCO)ccc2c1` (stereo unspecified), the median lethal dose (LD50) was 638 mg/kg.
For the compound `CCN(CC)CCNC(=O)COc1cc(OC)c(OC)c(OC)c1`, the LD50 is 1760 mg/kg.
`COc1cc(C(=O)N2CCOCC2)cc(OC)c1OC`: the LD50 is 1800 mg/kg.
`CN(C)CCNN`: the LD50 is 2110 mg/kg.
With `CC(O)CN(C)C` (stereo unspecified), the LD50 was 1740 mg/kg.
For the compound `CCCCC(CC)COC(C[n+]1ccccc1)c1cccc(Cl)c1` (stereo unspecified), the LD50 was 250 mg/kg.
On to `CCc1cc2c(cc1C=O)C(C)(C)CCC2(C)C`, for which the LD50 was 3200 mg/kg.
As for `O=C(OC1CC2CCC(C1)[N+]21CCCC1)C(O)(c1ccccc1)c1ccccc1` (stereo unspecified), the LD50 was 1500 mg/kg.
Regarding `COP(=O)(NC(=O)CCCCl)SC` (stereo unspecified), the LD50 is 3 mg/kg.
Turning to `N#Cc1ccccc1C#N`, the LD50 is 30 mg/kg.
As to `CCCCCC(C=Cn1ccnc1)OCc1ccccc1` (stereo unspecified), the LD50 is 2550 mg/kg.
Regarding `N#CCCC#N`, the LD50 is 450 mg/kg.
On to `O=C(C(F)(F)Cl)C(F)(F)Cl`, for which the LD50 is 61 mg/kg.
On to `CC(C)(Oc1ccc(Cl)cc1)C(=O)OCc1cccc(CO)n1`, for which the LD50 was 1250 mg/kg.
For the compound `CC(C)(N)CCCCCCCCCCOCCO`, the LD50 is 1850 mg/kg.
Turning to `CCCCCCCCc1ccccc1O`, the LD50 is 2800 mg/kg.
As for `CNCCc1ccc(OC(=O)C(C)C)c(OC(=O)C(C)C)c1`, the LD50 is 2930 mg/kg.
`CCOC(=O)Cc1ccccc1`: the LD50 was 3300 mg/kg.
With `COc1ccc(OC)c(NC(=O)CNC(=O)Cc2ccc(C(=O)c3ccc(C)cc3)n2C)c1`, the LD50 was 1470 mg/kg.
Regarding `C=CCc1ccc(OC(=O)NC)c(OC)c1`, the LD50 is 250 mg/kg.
As to `ClC(Cl)=C(c1ccc(Cl)cc1)c1ccccc1Cl`, the LD50 is 880 mg/kg.
In the case of `O=[N+]([O-])c1cccc(S(=O)(=O)O)c1`, the LD50 was 11000 mg/kg.
Take `COc1ccc(CCC2=NCCc3cc(OC)c(OC)cc32)cc1OC`: the LD50 is 900 mg/kg.
In the case of `CCCCCCCCCCCCCCCC[N+](C)(C)CC`, the LD50 was 500 mg/kg.
Regarding `C=CC(C)(O)CCCCC` (stereo unspecified), the LD50 is 1800 mg/kg.
With `CCCCC(=O)OCC(=O)[C@H]1[C@H](C)C[C@H]2[C@@H]3C[C@H](F)C4=CC(=O)C=C[C@]4(C)[C@@]3(F)[C@@H](O)C[C@@]21C`, the LD50 is 3100 mg/kg.
As to `O=C(Cl)c1ccc([N+](=O)[O-])cc1`, the LD50 is 5600 mg/kg.
